Here are results for 33 compounds from patent US20230128402A1 (The Trustees of Princeton University, priority 2020, published 2023).

In general, IC50 refers to the point on the concentration scale where inhibition reaches its midpoint.

The target in one test is T1, mALDH1a3 (Mus musculus, UniProt Q9JHW9).
T1 construct: made in house; host or cells: E. coli BL21-DE3, pET-Aldh1a3
T1 sequence (Q9JHW9 1-512): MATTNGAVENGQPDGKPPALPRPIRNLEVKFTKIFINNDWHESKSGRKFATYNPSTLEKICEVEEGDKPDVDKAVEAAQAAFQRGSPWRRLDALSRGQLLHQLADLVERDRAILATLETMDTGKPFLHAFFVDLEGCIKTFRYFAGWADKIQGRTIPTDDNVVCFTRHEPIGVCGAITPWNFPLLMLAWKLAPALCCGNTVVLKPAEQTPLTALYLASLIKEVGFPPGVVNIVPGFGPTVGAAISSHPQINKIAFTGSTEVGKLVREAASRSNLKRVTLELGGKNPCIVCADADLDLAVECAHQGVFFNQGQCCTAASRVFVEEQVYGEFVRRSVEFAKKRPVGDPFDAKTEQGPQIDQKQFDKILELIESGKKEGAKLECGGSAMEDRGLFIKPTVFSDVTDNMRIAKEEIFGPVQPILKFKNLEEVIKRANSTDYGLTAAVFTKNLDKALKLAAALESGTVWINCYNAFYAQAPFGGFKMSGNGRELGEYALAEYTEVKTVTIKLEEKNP
The test can be described thus: Aldh1a3 enzyme inhibition assay, recombinant mALDH1a3. The class given is biochemical. Conditions: resorufin fluorescence, 20° C. The source says:
(§1) Recombinant enzyme and inhibitor added immediately before assay. Reaction rate measured by resorufin fluorescence.

For a further test, the target named is T2, ALDH1a3 (Homo sapiens, UniProt P47895).
T2 sequence (P47895 1-512): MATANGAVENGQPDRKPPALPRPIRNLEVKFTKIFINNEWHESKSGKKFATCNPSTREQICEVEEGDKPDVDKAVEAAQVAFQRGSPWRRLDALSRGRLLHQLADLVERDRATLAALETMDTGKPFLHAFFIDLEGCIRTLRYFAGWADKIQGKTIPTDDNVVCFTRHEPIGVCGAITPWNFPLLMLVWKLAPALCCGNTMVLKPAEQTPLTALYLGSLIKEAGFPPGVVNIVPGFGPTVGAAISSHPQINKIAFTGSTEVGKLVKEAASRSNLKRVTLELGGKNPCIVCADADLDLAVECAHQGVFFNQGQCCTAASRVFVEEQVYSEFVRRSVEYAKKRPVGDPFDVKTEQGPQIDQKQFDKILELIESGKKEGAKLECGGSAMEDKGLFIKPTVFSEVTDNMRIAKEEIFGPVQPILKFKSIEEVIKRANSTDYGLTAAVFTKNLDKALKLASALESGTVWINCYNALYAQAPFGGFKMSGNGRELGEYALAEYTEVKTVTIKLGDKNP
The test can be described thus: Aldh1a3 enzyme inhibition assay, recombinant hALDH1a3. The class given is biochemical. Conditions: resorufin fluorescence, 20° C. Also noted: made in house; host or cells: E. coli BL21-DE3, pET-Aldh1a3.
From the text: as §1

Take `CC1(C)Cc2cc(Nc3ncc4ccccc4n3)c(F)cc2NC1=O` [Compound 108, 7-fluoro-3,3-dimethyl-6-(quinazolin-2-ylamino)-1,4-dihydroquinolin-2-one]: the IC50 on mALDH1a3 was 0.25 to 1 µM; on ALDH1a3 it was 1 to 5 µM.
The matching figures for `O=C1CCc2cc(Nc3ccc4ccccc4n3)c(F)cc2N1` [Compound 47, 7-fluoro-6-(2-quinolylamino)-3,4-dihydro-1H-quinolin-2-one]: less than 0.1 µM and 0.1 to 0.25 µM.
The matching figures for `CCc1cnc(C)cc1C(=O)Nc1cc2c(cc1F)NC(=O)CC2` [Compound 79, 5-ethyl-N-(7-fluoro-2-oxo-3,4-dihydro-1H-quinolin-6-yl)-2-methyl-pyridine-4 carboxamide]: 0.25 to 1 µM and 0.25 to 1 µM.
On the same counts, the results for `Cc1cccc2ncc(Nc3ccc4c(c3)CCC(=O)N4)cc12` [Compound 101, 6-[(5-methyl-3-quinolyl)amino]-3,4-dihydro-1H-quinolin-2-one] are 1 to 5 µM and 1 to 5 µM.
On to `CCc1cnccc1/C=C/c1cc2c(cc1F)NC(=O)CC2` [Compound 45, 6-[(E)-2-(3-ethyl-4-pyridyl)vinyl]-7-fluoro-3,4-dihydro-1H-quinolin-2-one], for which the concentration for half-maximal inhibition (IC50) at mALDH1a3 and on ALDH1a3 was 0.25 to 1 µM in each case.
`O=C1CCc2cc(Nc3nccc4ccccc34)ccc2N1` [Compound 22, 6-(1-isoquinolylamino)-3,4-dihydro-1H-quinolin-2-one]: the IC50 at mALDH1a3 and on ALDH1a3 was greater than 5 µM in each case.
For `CC1(C)Cc2cc(Nc3cccc(Cl)n3)ccc2NC1=O` [Compound 122, 6-[(6-chloro-2-pyridyl)amino]-3,3-dimethyl-1,4-dihydroquinolin-2-one], the IC50 at mALDH1a3 and at ALDH1a3 was greater than 5 µM each time.
Take `Cc1cc2ccccc2nc1Nc1ccc2c(c1)CC(C)(C)C(=O)N2` [Compound 134]: the half-inhibitory concentration (IC50) at mALDH1a3 and on ALDH1a3 was 0.25 to 1 µM in each case.
Turning to `CCc1cc(C#N)ccc1C(=O)Nc1cc2c(cc1F)NC(=O)C(C)(C)C2` [Compound 42, 4-cyano-2-ethyl-N-(7-fluoro-3,3-dimethyl-2-oxo-1,4-dihydroquinolin-6-yl)benzamide], the IC50 at mALDH1a3 and on ALDH1a3 was 1 to 5 µM throughout.
For `CCc1cnccc1/C=C/c1ccc2c(c1)CC(C)(C)C(=O)N2` [Compound 43, 6-[(E)-2-(3-ethyl-4-pyridyl)vinyl]-3,3-dimethyl-1,4-dihydroquinolin-2-one], the figures for the IC50 at mALDH1a3 and on ALDH1a3 were 1 to 5 µM and 0.25 to 1 µM, respectively.
Regarding `CC1(C)Cc2cc(NC3COc4ccccc4C3)ccc2NC1=O` (stereo not drawn) [Compound 105, 6-(chroman-3-ylamino)-3,3-dimethyl-1,4-dihydroquinolin-2-one], the concentration for half-maximal inhibition (IC50) at mALDH1a3 and on ALDH1a3 was greater than 5 µM in each case.
On to `CCc1cnccc1/C=C/c1ccc2c(c1)CCC(=O)N2` [Compound 33, 6-[(E)-2-(3-ethyl-4-pyridyl)vinyl]-3,4-dihydro-1H-quinolin-2-one], for which the IC50 at mALDH1a3 and on ALDH1a3 was 0.1 to 0.25 µM each time.
For `O=C1CCc2cc(NC(=O)c3ccncc3CC3CC3)c(F)cc2N1` [Compound 81, 3-(cyclopropylmethyl)-N-(7-fluoro-2-oxo-3,4-dihydro-1H-quinolin-6-yl)pyridine-4-carboxamide], the IC50 at mALDH1a3 and at ALDH1a3 was less than 0.1 µM each time.
As to `Cc1ccc2nc(Nc3ccc4c(c3)CCC(=O)N4)ccc2c1` [Compound 89, 6-[(6-methyl-2-quinolyl)amino]-3,4-dihydro-1H-quinolin-2-one], the figures for the 50% inhibitory concentration (IC50) at mALDH1a3 and on ALDH1a3 were 1 to 5 µM and greater than 5 µM, respectively.
On the same counts, the results for `Cc1cc(C(=O)Nc2ccc3c(c2)CC2(CC2)C(=O)N3)c(Cl)cn1` [Compound 68] are greater than 5 µM and 1 to 5 µM.
On the same counts, the results for `CCc1cnccc1C(=O)Nc1ccc2c(c1)CC(C)(C)C(=O)N2` [Compound 18, N-(3,3-dimethyl-2-oxo-1,4-dihydroquinolin-6-yl)-3-ethyl-pyridine-4-carboxamide] are 1 to 5 µM and 0.1 to 0.25 µM.
On the same counts, the results for `CCc1cccnc1C(=O)Nc1cc2c(cc1Cl)NC(=O)CC2` [Compound 72, N-(7-chloro-2-oxo-3,4-dihydro-1H-quinolin-6-yl)-3-ethyl-pyridine-2-carboxamide] are 0.25 to 1 µM and 0.25 to 1 µM.
Turning to `Cc1cccc2ccc(Nc3ccc4c(c3)CC(C)(C)C(=O)N4)nc12` [Compound 111], the IC50 on mALDH1a3 and on ALDH1a3 was greater than 5 µM throughout.
For `CC1(C)Cc2cc(Nc3cnc4ccccc4n3)ccc2NC1=O` [Compound 92, 3,3-dimethyl-6-(quinoxalin-2-ylamino)-1,4-dihydroquinolin-2-one], the IC50 at mALDH1a3 and on ALDH1a3 was 0.1 to 0.25 µM each time.
On to `CC1(C)Cc2cc(Nc3ccc4cnccc4c3)ccc2NC1=O` [Compound 103, 6-(6-isoquinolylamino)-3,3-dimethyl-1,4-dihydroquinolin-2-one], for which the IC50 at mALDH1a3 and on ALDH1a3 was greater than 5 µM in each case.
As to `CC1(C)Cc2cc(Nc3nc4ccccc4o3)ccc2NC1=O` [Compound 99, 6-(1,3-benzoxazol-2-ylamino)-3,3-dimethyl-1,4-dihydroquinolin-2-one], the IC50 on mALDH1a3 and on ALDH1a3 was 0.25 to 1 µM throughout.
Regarding `Cn1ccc2nc(Nc3ccc4c(c3)CC(C)(C)C(=O)N4)ccc21` [Compound 113, 3,3-dimethyl-6-[(1-methylpyrrolo[3,2-b]pyridin-5-yl)amino]-1,4-dihydroquinolin-2-one], the half-inhibitory concentration (IC50) on mALDH1a3 and at ALDH1a3 was greater than 5 µM throughout.
Consider `CC1(C)CC(=O)Nc2ccc(Nc3nccc4ccccc34)cc21` [Compound 34, 6-(1-isoquinolylamino)-4,4-dimethyl-1,3-dihydroquinolin-2-one], for which the 50% inhibitory concentration (IC50) at mALDH1a3 and at ALDH1a3 was greater than 5 µM throughout.
On to `CCc1cc(C(=O)Nc2ccc3c(c2)CCC(=O)N3)ccn1` [Compound 29], for which the IC50 at mALDH1a3 and on ALDH1a3 was greater than 5 µM in each case.
Take `CCc1cnccc1C(=O)N(C)c1ccc2c(c1)CCC(=O)N2` [Compound 27, 3-ethyl-N-methyl-N-(2-oxo-3,4-dihydro-1H-quinolin-6-yl)pyridine-4-carboxamide]: the IC50 on mALDH1a3 and on ALDH1a3 was greater than 5 µM each time.
Consider `CCc1c(C(=O)Nc2ccc3c(c2)CCC(=O)N3)cc[nH]c1=O` [Compound 50, 3-ethyl-2-oxo-N-(2-oxo-3,4-dihydro-1H-quinolin-6-yl)-1H-pyridine-4-carboxamide], for which the IC50 at mALDH1a3 was 1 to 5 µM; on ALDH1a3, 0.1 to 0.25 µM.
The matching figures for `CCc1cnccc1C(=O)Nc1cc2c(cc1C#N)NC(=O)CC2` [Compound 84, N-(7-cyano-2-oxo-3,4-dihydro-1H-quinolin-6-yl)-3-ethyl-pyridine-4-carboxamide]: 0.25 to 1 µM and 0.25 to 1 µM.
Regarding `CCc1cnccc1C(=O)Nc1ccc2c(c1)CC(C)(CC)C(=O)N2` (stereo not drawn) [Compound 62, 3-ethyl-N-(3-ethyl-3-methyl-2-oxo-1,4-dihydroquinolin-6-yl)pyridine-4-carboxamide], the figures for the IC50 on mALDH1a3 and on ALDH1a3 were greater than 5 µM and 1 to 5 µM, respectively.
On the same counts, the results for `CCc1cnc(Cl)cc1C(=O)Nc1cc2c(cc1F)NC(=O)CC2` [Compound 80, 2-chloro-5-ethyl-N-(7-fluoro-2-oxo-3,4-dihydro-1H-quinolin-6-yl)pyridine-4-carboxamide] are 0.25 to 1 µM and less than 0.1 µM.
The matching figures for `CCc1c(C(=O)Nc2ccc3c(c2)CCC(=O)N3)ccnc1C` [Compound 55, 3-ethyl-2-methyl-N-(2-oxo-3,4-dihydro-1H-quinolin-6-yl)pyridine-4-carboxamide]: 0.25 to 1 µM and 0.25 to 1 µM.
Turning to `CC1(C)Cc2cc(Nc3ccc4ccncc4c3)ccc2NC1=O` [Compound 104, 6-(7-isoquinolylamino)-3,3-dimethyl-1,4-dihydroquinolin-2-one], the IC50 at mALDH1a3 and at ALDH1a3 was greater than 5 µM throughout.
With `Cc1cc(C(=O)Nc2cc3c(cc2F)NC(=O)C(C)(C)C3)c(CC(C)C)cn1` [Compound 37, N-(7-fluoro-3,3-dimethyl-2-oxo-1,4-dihydroquinolin-6-yl)-5-isobutyl-2-methyl-pyridine-4-carboxamide], the IC50 was greater than 5 µM on mALDH1a3 and 1 to 5 µM on ALDH1a3.
On the same counts, the results for `CC1(C)Cc2cc(Nc3ccc4ccccc4n3)c(F)cc2NC1=O` [Compound 48, 7-fluoro-3,3-dimethyl-6-(2-quinolylamino)-1,4-dihydroquinolin-2-one] are 0.25 to 1 µM and 0.25 to 1 µM.
